For data set [1], the system named is mouse Pan T cells. Kind of data set: mouse Pan T cell IFN-γ rescue from A2A agonist CGS-21680 (ELISA, 48 h). The data set is classed as cell-based. The note with it: for IC50: Mus musculus, T-cell. From the text: (§1) Adenosine (Ado) in tumor microenvironment can inhibit T cell activity by signaling through A2A receptors and suppress cytokine secretion by T cells. […] Potential A2A antagonists or A2A/A2B dual antagonists can rescue T cells from this inhibition. Herein, we describe the in vitro system we established using Pan T cells from mouse spleens to screen potential A2A antagonists or A2A/A2B dual antagonists for their activity. The method described involves the use of CD3/CD28 pre-coated beads to stimulate Pan T cells purified from mouse splenocytes, combined with the addition of A2A agonist along with potential A2A or A2A/A2B dual antagonists to evaluate potentiation of T cell cytokine production.
(§2) Briefly, mouse Pan T cells are purified from spleens of BALB/c mice using Pan T cell isolation kit Mouse II (MACS Miltenyi biotech Cat # Order no. 130-095-130) according to manufacturer's protocol. The purified T cells are seeded in Nunc™ 96-Well Polystyrene Round Bottom Microwell Plates in RPMI medium with 10% heat inactivated fetal bovine serum. The cells are rested at 37° C. for 1 h before activating with CD3/CD28 pre-coated beads (Dynabeads™ Mouse T-Activator CD3/CD28; Cat #11456D). After 30 min the cells are treated with varying doses of test antagonist(s). […] After 24 h incubation IL-2 levels in the supernatants and after 48 h incubation IFN-γ levels in the supernatants are measured by ELISAs according to manufacturer's protocol (R&D systems Cat # DY402 (IL-2); DY485 (IFN-γ)). Once the concentrations are calculated, the difference of cytokine concentration of DMSO control and agonist alone control is calculated (called A) and the percentage of rescue by each concentration of antagonist is calculated by using Microsoft Excel. These percentages of cytokine rescue in a dose dependent manner of antagonist is plotted in GraphPad Prism software and IC50 is calculated.
For orientation: An ELISA detects its analyte on a solid surface through an enzyme-linked reagent.

The nature of data set [2]: pharmacokinetic properties in mouse after single intravenous and oral administration. The note with it: PK data in mouse; for Feces iv: @0.2 (dose, unit not given); for clearance / half-life / Cmax / Vd: female, plasma, 0.2 mg/kg; for Cmax: dose-normalized to 1 mg/kg; for Vd: read-out: Vss. The data set is classed as in vivo. From the text:
The objective of the study was to obtain information on the pharmacokinetic properties of the compounds of the present invention in female Wistar rats/mice following single intravenous and oral administration.
Female Wistar rats/mice (n=6) received either a single intravenous (bolus) injection or an oral administration (by gavage) of the tested compound.
The concentrations of the compounds in plasma, feces were quantified using an UPLC method with tandem mass spectrometric detection (LC-MS/MS) previously developed at the ‘Institute of Drug Metabolism and Pharmacokinetics’. The LC-MS/MS system consisted of a Waters Acquity UPLC coupled to an AB Sciex mass spectrometer API 5500 Q-trap. […] The detection of the compounds was performed using multiple reaction monitoring in the positive ionization mode. Plasma samples were spiked with internal standard (20 μl) and the analyte was extracted from the matrix using tertiary-butyl methyl ether (tBME). The organic phase was evaporated to dryness under a stream of nitrogen. The residue was dissolved in acetonitrile/0.1% formic acid for LC-MS/MS analysis. Feces samples were homogenized with 4-times their volume of an ethanol/water mixture (4:1, v/v). Aliquots of the aqueous-ethanolic extracts were spiked with internal standard, diluted with acetonitrile/water (1:1, v/v) and directly injected into the LC-MS/MS system.
Pharmacokinetic parameters Cmax and tmax were taken from the observed data. […] AUC values were calculated by non-compartmental analysis using the linear up/log down method. Numerical data for mean plasma concentrations and derived pharmacokinetic parameters were rounded to 3 significant digits for presentation.

Data set [3] deals with mouse Pan T cells. Kind of data set: mouse Pan T cell IL-2 rescue from A2A agonist CGS-21680 (ELISA, 24 h). The data set is classed as cell-based. The note with it: for IC50: Mus musculus, T-cell.
Source text: as §1, §2

The target in a further data set is T1, human A1 receptor (Homo sapiens, UniProt P30542).
T1 construct: expressed in transfected cells; host or cells: CHO
T1 sequence (P30542 1-326): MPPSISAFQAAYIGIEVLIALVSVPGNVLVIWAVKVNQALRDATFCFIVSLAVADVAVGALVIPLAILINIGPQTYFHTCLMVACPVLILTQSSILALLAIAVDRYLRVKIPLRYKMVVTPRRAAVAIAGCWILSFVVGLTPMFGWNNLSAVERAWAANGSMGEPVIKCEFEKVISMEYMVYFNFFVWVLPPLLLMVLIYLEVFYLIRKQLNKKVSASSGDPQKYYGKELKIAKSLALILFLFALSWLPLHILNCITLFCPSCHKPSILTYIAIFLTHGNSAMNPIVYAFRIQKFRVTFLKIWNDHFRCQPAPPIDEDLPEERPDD
Kind of data set: functional cAMP (HTRF) assay, recombinant CHO cells expressing human A1 receptor, forskolin, agonist CPA. It counts as cell-based. In outline:
(§3)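 CHO cells (hA1 or hA3) + forskolin + test cpd + agonist (CPA/A1, IB-MECA/A3), 30 min; HTRF cAMP readout; normalized vs inhibitor and DMSO controls, curve fit.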
For orientation: In TR-FRET formats the signal depends on donor and acceptor labels being close together.

The next data set deals with T2, A2B receptors (Homo sapiens, UniProt P29275).
T2 sequence (P29275 1-332): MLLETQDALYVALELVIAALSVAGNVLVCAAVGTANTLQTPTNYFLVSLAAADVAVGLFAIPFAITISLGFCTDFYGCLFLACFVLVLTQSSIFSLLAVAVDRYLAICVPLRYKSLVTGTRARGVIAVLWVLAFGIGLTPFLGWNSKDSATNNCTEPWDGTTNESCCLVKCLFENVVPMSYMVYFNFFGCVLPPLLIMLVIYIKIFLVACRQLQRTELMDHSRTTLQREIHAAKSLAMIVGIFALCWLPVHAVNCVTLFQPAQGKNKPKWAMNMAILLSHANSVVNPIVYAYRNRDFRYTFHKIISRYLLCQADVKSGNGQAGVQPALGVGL
Kind of data set: functional cAMP (HTRF) assay, recombinant HEK293 cells expressing human A2B receptor, agonist NECA. It counts as cell-based. On the set-up: expressed in transfected cells; host or cells: HEK293.

The next data set has as its target T3, human A3 receptor (Homo sapiens, UniProt P0DMS8).
T3 construct: expressed in transfected cells; host or cells: CHO
T3 sequence (P0DMS8 1-318): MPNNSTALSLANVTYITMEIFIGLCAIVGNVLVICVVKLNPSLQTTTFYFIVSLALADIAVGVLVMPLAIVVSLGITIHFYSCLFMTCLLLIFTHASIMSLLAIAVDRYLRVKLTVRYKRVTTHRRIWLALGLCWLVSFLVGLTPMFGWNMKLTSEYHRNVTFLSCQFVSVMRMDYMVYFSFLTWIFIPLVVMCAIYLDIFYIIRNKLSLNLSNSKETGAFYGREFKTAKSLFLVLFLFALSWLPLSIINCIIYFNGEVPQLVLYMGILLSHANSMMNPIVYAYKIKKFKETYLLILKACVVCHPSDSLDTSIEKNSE
Kind of data set: functional cAMP (HTRF) assay, recombinant CHO cells expressing human A3 receptor, forskolin, agonist IB-MECA. It counts as cell-based. In outline: as §3

The target of another data set is T4, human A2A receptor (Homo sapiens, UniProt P29274).
T4 construct: expressed in transfected cells; host or cells: HEK293
T4 sequence (P29274 whole entry): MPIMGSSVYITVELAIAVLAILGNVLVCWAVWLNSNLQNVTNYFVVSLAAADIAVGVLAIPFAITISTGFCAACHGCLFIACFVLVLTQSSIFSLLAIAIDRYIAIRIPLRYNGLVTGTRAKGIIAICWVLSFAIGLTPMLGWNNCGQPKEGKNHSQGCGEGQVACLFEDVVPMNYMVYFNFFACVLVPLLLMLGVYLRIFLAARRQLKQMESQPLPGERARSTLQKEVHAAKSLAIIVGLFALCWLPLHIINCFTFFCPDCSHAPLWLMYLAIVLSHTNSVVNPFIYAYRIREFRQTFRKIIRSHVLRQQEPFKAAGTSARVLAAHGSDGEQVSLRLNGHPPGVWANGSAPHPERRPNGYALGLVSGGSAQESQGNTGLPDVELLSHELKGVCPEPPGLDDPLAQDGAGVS
Briefly: functional cAMP (HTRF) assay, recombinant HEK293 cells expressing human A2A receptor, agonist NECA. The data set is classed as cell-based.

Where [4] appears, read: IC50 of cytokine rescue, CGS-21680 1 μM, CD3/CD28 beads.

The values below come from patent publication US11453647B2, “Benzimidazole derivatives as adenosine receptor antagonists” (Merck Patent GmbH, priority 2017, dated 2022).

Structures are written as SMILES. Bounds are passed on as bounds.

Turning to `COc1ccc(N2CCOCC2)c2sc(NC(=O)N3CCC(C)(O)CC3)nc12` [Tozadenant, reference compound], the “Mouse IFN-γ” value in the data set with mouse Pan T cells [1] (setting [4]) is “NA (<50% rescue)”. Also, in data set [2], the Feces iv was 23@0.2%. In addition, the “Mouse T-Cell IL-2” value in the data set with mouse Pan T cells [3] (setting [4]) is listed as “NA (<50% rescue)”.
Broadly, the IC50 is the point on the concentration scale where inhibition reaches its midpoint. Take `CCNCc1ccc(C(=O)Nc2nc3c(-c4ccccc4)ccc(OC)c3[nH]2)cc1` [compound 11, 4-Ethylaminomethyl-N-(7-methoxy-4-phenyl-1H-benzoimidazol-2-yl)-benzamide]: the IC50 is 75 nM in the data set with mouse Pan T cells [1]; above 1000 nM at human A1 receptor; below 100 nM at A2B receptors; 44 nM in the data set with mouse Pan T cells [3]; above 1000 nM on human A3 receptor; below 10 nM at human A2A receptor.
Consider `COc1ccc(-c2ccccc2)c2nc(NC(=O)c3ccc(Cn4ccnc4)cc3)[nH]c12` [compound 15, 4-Imidazol-1-ylmethyl-N-(7-methoxy-4-phenyl-1H-benzoimidazol-2-yl)-benzamide], for which the IC50 on human A1 receptor was below 1000 nM; on A2B receptors, below 10 nM; with mouse Pan T cells [3], 1110 nM; on human A3 receptor, below 100 nM; on human A2A receptor, below 10 nM.
On to `COc1ccc(-c2cnn(C)c2)c2nc(NC(=O)N3CCC(C)(CO)CC3)[nH]c12` [compound 35, 4-Hydroxymethyl-4-methyl-piperidine-1-carboxylic acid [7-methoxy-4-(1-methyl-1H-pyrazol-4-yl)-1H-benzoimidazol-2-yl]-amide], for which the half-inhibitory concentration (IC50) in the data set on mouse Pan T cells [1] stood at 220 nM; in the data set with mouse Pan T cells [3] it was 120 nM.
With `COc1ccc(-c2cnn(C)c2)c2nc(NC(=O)N3CCC4(CCCOC4)C3)[nH]c12` (centres unmarked) [compound 67, N-[7-methoxy-4-(1-methyl-1H-pyrazol-4-yl)-1H-1,3-benzodiazol-2-yl]-7-oxa-2-azaspiro[4.5]decane-2-carboxamide], in the data set on mouse Pan T cells [1], the half-inhibitory concentration (IC50) came to 800 nM.
As for `COc1ccc(-c2cnn(C)c2)c2nc(NC(=O)c3ccc(Cn4ccnc4)cc3)[nH]c12` [compound 71, 4-[(1H-imidazol-1-yl)methyl]-N-[7-methoxy-4-(1-methyl-1H-pyrazol-4-yl)-1H-1,3-benzodiazol-2-yl]benzamide], the IC50 in the data set on mouse Pan T cells [1] was 40 nM; at human A1 receptor, above 1000 nM; at A2B receptors, below 100 nM; in the data set with mouse Pan T cells [3], 40 nM; on human A3 receptor, below 1000 nM; on human A2A receptor, below 10 nM.
As a reminder, the half-life is the time needed for the level to fall by half in the phase considered. The term Cmax denotes the highest concentration seen after dosing. `C#CCC1(O)CCN(C(=O)Nc2nc3c(-c4cnn(C)c4)ccc(OC)c3[nH]2)CC1` [compound 92, 4-hydroxy-N-[7-methoxy-4-(1-methyl-1H-pyrazol-4-yl)-1H-1,3-benzodiazol-2-yl]-4-(prop-2-yn-1-yl)piperidine-1-carboxamide]: the IC50 was 500 nM with mouse Pan T cells [1]; above 1000 nM on human A1 receptor; below 1000 nM on A2B receptors; 1000 nM with mouse Pan T cells [3]; above 1000 nM on human A3 receptor; below 10 nM on human A2A receptor. For the same compound, the Feces iv in data set [2] is on record as 26@0.2%. The compound further showed a clearance in data set [2] of 31.7 mL/min/kg. In data set [2], this compound had a half-life of 33.4 min. In addition, the highest level in data set [2] (Cmax) was 892 ng/mL. Further, the Vd in data set [2] was determined as 1.17 L/kg.
In the case of `COc1ccc(-c2cnn(C)c2)c2nc(NC(=O)c3ccc(OC(F)(F)F)cc3)[nH]c12` [compound 94, N-[7-methoxy-4-(1-methyl-1H-pyrazol-4-yl)-1H-1,3-benzodiazol-2-yl]-4-(trifluoromethoxy)benzamide], the IC50 was 1000 nM with mouse Pan T cells [1]; above 1000 nM at human A1 receptor; below 1000 nM at A2B receptors; below 1000 nM on human A3 receptor; below 10 nM at human A2A receptor.
For `COc1ccc(C2CCOCC2)c2nc(NC(=O)c3ccc(C(=O)N(C)C)cc3)[nH]c12` [compound 133, N4-[7-methoxy-4-(oxan-4-yl)-1H-1,3-benzodiazol-2-yl]-N1,N1-dimethylbenzene-1,4-dicarboxamide], on human A1 receptor, the 50% inhibitory concentration (IC50) is above 1000 nM. Moreover, the IC50 on A2B receptors is below 1000 nM. For the same compound, in data set [2], the Feces iv is reported as 2.5@0.2%, the clearance was 12.7 mL/min/kg, the half-life was 40.1 min and the Cmax was determined as 2640 ng/mL. Moreover, in data set [2], the Vd amounted to 0.402 L/kg. Also, the IC50 on human A3 receptor is above 1000 nM. Besides, the IC50 at human A2A receptor was below 10 nM.
`COc1ccc(N2CCOCC2)c2nc(NC(=O)c3cnn(C)c3)[nH]c12` [compound 136, N-[7-methoxy-4-(morpholin-4-yl)-1H-1,3-benzodiazol-2-yl]-1-methyl-1H-pyrazole-4-carboxamide]: the IC50 at human A1 receptor is above 1000 nM. In addition, the IC50 on A2B receptors is above 1000 nM. Also, in data set [2], the Feces iv is 5.6@0.2%, the clearance is 5.55 mL/min/kg, the half-life is 69 min and the Cmax was 2100 ng/mL. Also, in data set [2], the Vd stood at 0.522 L/kg. At human A3 receptor, the IC50 is above 1000 nM. Further, the half-maximal inhibitory concentration (IC50) on human A2A receptor was below 10 nM.
As to `COc1ccc(C2CCOCC2)c2nc(NC(=O)c3ccc(CN4CCCC4=O)cc3)[nH]c12` [compound 138, N-[7-methoxy-4-(oxan-4-yl)-1H-1,3-benzodiazol-2-yl]-4-[(2-oxopyrrolidin-1-yl)methyl]benzamide], the IC50 at human A1 receptor was above 1000 nM; on A2B receptors, below 1000 nM; at human A3 receptor, above 1000 nM; on human A2A receptor, below 10 nM. Further, the clearance in data set [2] is 28.5 mL/min/kg. In data set [2], the half-life was 32.3 min. In data set [2], this compound displayed a maximum concentration (Cmax) of 1.9 ng/mL. Also, in data set [2], the Vd amounted to 1.06 L/kg.
